The source of these data is patent publication US4605655A, “Antipsychotic 1-fluorophenylbutyl-4-(2-pyrimidinyl)piperazine derivatives” (Bristol-Myers Company, priority 1984, dated 1986).

“Also recorded” adds a separate entry of the source. Like-named read-outs stand apart in the source and are kept apart here. Where only a bound is given, the exact number is not on record here.

Series [1] has as its system Dopamine receptor (striatal tissue). Description: Dopamine (DA) receptor binding vs. [^3 H]spiperone. From the text:
(§1) As further indication of the psychotropic activity and specificity of the instant compounds, state of the art in vitro central nervous system receptor binding methodology can be employed. […] Inhibition of radiolabeled ligand binding to such specific high affinity sites is considered a measure of the compound's ability to affect corresponding central nervous system function or cause side effects in vivo. This principal is employed in the following assays which are given by way of example.
Dopamine Burt, et al., Molec. Pharmacol., 12, 800

Series [2] can be described thus: Conditioned Avoidance Response (CAR). Format: in vivo, trained fasted rats. From the text:
1. Conditioned Avoidance Response (CAR)--measure of a drug's tranquilizing activity as determined by its attenuation of avoidance response to electrical shock in trained fasted rats. cf: Albert, Pharmacologist, 4, 152 (1962); Wu, et al, J. Med. Chem., 12, 876-881 (1969).

For series [3], the target named is Muscarinic Cholinergic receptor. Description: Muscarinic cholinergic receptor binding.
Source text: as §1
Cholinergic Yamamura, et al., Proc. Natn. Acad. Sci.

A short description of series [4]: Catalepsy Reversal (neuroleptic-induced catalepsy). The note with it: for reversal of neuroleptic-induced catalepsy, potency relative to racemic material: compared with racemic BMY 14802; for Catalepsy Reversal ED50: p.o. Format: in vivo, rat. From the text: 4. Catalepsy Reversal--measure of a drug's ability to reverse neuroleptic-induced catalepsy in the rat.

The subject of series [5] is norepinephrine lethality (α1-adrenergic blockade). Description: Inhibition of Norepinephrine (NE) Lethality. In kind it is in vivo. The settings on record: po; read-out: Inhibition of NE Lethality ED50 (alpha-block). From the text:
5. Inhibition of Norepinephrine Lethality--drug inhibition of the lethality of noradrenergic drug norepinephrine indicates α1 -adrenergic blockade.

Series [6] concerns α2-adrenergic binding sites. Description: α2-adrenergic receptor binding. The note with it: in words. From the text:
(§2) As further indication of the psychotropic activity and specificity of the instant compounds, state of the art in vitro central nervous system receptor binding methodology can be employed. Certain compounds (commonly referred to as ligands) have been identified which preferentially bind to specific high affinity sites in brain tissue dealing with psychotropic activity or potential for side effects. Inhibition of radiolabeled ligand binding to such specific high affinity sites is considered a measure of the compound's ability to affect corresponding central nervous system function or cause side effects in vivo. This principal is employed in the following assays which are given by way of example.
Rosenblatt, et al., Brain Res., 160: 186
(1979); U'Prichard, et al., Science, 199:
197 (1978); U'Prichard, et al., Molec.

A further series relates to α1 receptor. Put plainly: α1 binding vs. [^3 H]WB4101.
Source text: as §1

Series [7] deals with apomorphine stereotypy (dopaminergic activity). Description: Inhibition of Apomorphine-Induced (APO) Stereotypy. Format: in vivo, rats. From the text: 2. Inhibition of Apomorphine-Induced (APO) Stereotype--an assessment of blockade of dopaminergic activity in rats as measured by attentuation of the behavioral syndrome caused by the dopamine agonist, apomorphine. cf. Janssen, et al, Arzneimittel. Forsch., 17, 841 (1966).

In the next series the test system is opiate binding sites. Put plainly: Opiate receptor binding. The settings on record: in words.
Source text: as §2

A short description of another series: Catalepsy. In kind it is in vivo, rats. The note with it: for ED50: rat, in vivo, po.
Series [8] relates to serotonergic binding sites. Put plainly: Serotonergic receptor binding. The note with it: in words.
Source text: as §2
Peroutka and Snyder, Molec. Pharmacol.,

Another series relates to GABA binding sites. Put plainly: GABA receptor binding. The note with it: in words.
Source text: as §2

Setting [9] is: in rats; compared with racemic BMY 14802; in words.
The mark [10] stands for this setting: Rattus norvegicus, po; read-out: CAR ED50.
[11] abbreviates: Rattus norvegicus, po; read-out: Inhibition of APO-Stereotypy ED50.

Broadly, the IC50 is the midpoint of a concentration-inhibition curve. Broadly, the ED50 is the dose that gives a 50% effect, or the effect in half of the subjects.

Take `Cl.OC(CCCN1CCN(c2ncc(F)cn2)CC1)c1ccc(F)cc1` (racemic) [MJ 14802, 4-[4-[5-Fluoro-2-pyrimidinyl]-1-piperazinyl]-1-(4-fluorophenyl)butanol Hydrochloride]: the dopamine receptor binding entry in series [1] (in words) is listed as “very weak dopamine receptor binding”. In addition, the IC50 was 6400 nM in series [1] (vs. [^3 H]spiperone, read-out: DA Binding (vs. [^3 H]spip.) IC50); above 1000 nM in [3]; 520 nM on α1 receptor (vs. [^3 H]WB4101). Also, the ED50 is 26.4 mg/kg in series [2] (Rattus norvegicus, po, read-out: CAR ED50); 16.9 mg/kg in [4] (Rattus norvegicus, po, read-out: Catalepsy Reversal ED50); above 100 mg/kg in [5]; 33 mg/kg in [7] (Rattus norvegicus, po, read-out: Inhibition of APO-Stereotypy ED50); above 100 mg/kg in “Catalepsy”. In addition, in series [2] (rat, in vivo), the “duration of action in the inhibition of the CAR” value was above 7 h. Moreover, the “activity at cholinergic binding sites” value in [3] (in words, Hydrochloride) is “essentially inactive; also recorded: lacks anticholinergic”. For the same molecule, the “reversal of neuroleptic-induced catalepsy” value in [4] (in words) is “reverses neuroleptic-induced catalepsy”. Moreover, the “activity at α2-adrenergic binding sites” value in series [6] is “essentially inactive”. The α1-adrenergic activity result with α1 receptor (in words) was “lacks anticholinergic and α1 -adrenergic activities”. Besides, the “duration of action in the inhibition of apomorphine stereotypy” value in series [7] (rat, in vivo) turned out to be 4 h. The “activity at opiate binding sites” value in the series on opiate binding sites was “essentially inactive”. Moreover, the catalepsy production entry in “Catalepsy” (in words) is reported as “fails to cause catalepsy”. In addition, the “activity at serotonergic binding sites” value in series [8] is “essentially inactive”. Also, the “activity at GABA binding sites” value in the series with GABA binding sites is “essentially inactive”.
In the case of `OC(CCCN1CCN(c2ncc(F)cn2)CC1)c1ccc(F)cc1` (single isomer, unassigned) [(+)-- enantiomer of BMY 14802, (+)--α-(4-Fluorophenyl)-4-(5-fluoro-2-pyrimidinyl)-1-piperazinebutanol Hydrate], the “reversal of neuroleptic-induced catalepsy, potency relative to racemic material” value in [4] (in words) is reported as “The converse was true”. In addition, the “inhibition of apomorphine stereotypy, potency relative to racemic material” value in series [7] (setting [9]) was “The converse was true”.
`O.OC(CCCN1CCN(c2ncc(F)cn2)CC1)c1ccc(F)cc1` (single isomer, unassigned) [(-)-- enantiomer, (-)-α-(4-Fluorophenyl)-4-(5-fluoro-2-pyrimidinyl)-1-piperazinebutanol Hydrate]: the “reversal of neuroleptic-induced catalepsy, potency relative to racemic material” value in [4] (in words) is “less potent”. In series [7] (setting [9]), the “inhibition of apomorphine stereotypy, potency relative to racemic material” value is on record as “more potent than racemic material”.
Turning to `CN1CCN(C2=Nc3cc(Cl)ccc3Nc3ccccc32)CC1` [Clozapine, reference compound], the ED50 was 24 mg/kg in [2] (setting [10]), 3.5 mg/kg in [5], 49.2 mg/kg in [7] (setting [11]) and above 200 mg/kg in “Catalepsy”. Moreover, in series [4], the “Catalepsy Reversal ED50” value was “I”.
Taken in the same sequence, the figures for `CSc1ccc2c(c1)N(CCC1CCCCN1C)c1ccccc1S2` (stereo not shown) [Thioridazine, reference compound] were 126 mg/kg, 2.2 mg/kg, 280 mg/kg, 45.2 mg/kg and “I”.
Consider `OC(CCCN1CCN(c2ncccn2)CC1)c1ccc(F)cc1` (stereo not shown) [des-fluoro analog of MJ 14802], for which, in series [2] (rat, in vivo), the “time after which CAR activity is lost” value is “lost after three hours”.
